In patent US12410399B2, “Compositions and methods for treating retinal diseases” (The Regents of the University of California, priority 2011, dated 2025):

How the values were obtained:
hRPCs = assay: hRPC culture medium and supplement comparison (yield, proliferation); assay type: cell-based, human; details: supplement added to culture medium every two days
Procedure: Various serum- and xeno-free cell culture media were tested to determine the optimum condition for propagating RPCs, including DMEM/FF12 (standard, Advanced and KnockOut; Invitrogen), Neurobasal (Invitrogen), Ultraculture (Lonza), and ReNcell (Chemicon). […] “SM” as provided herein refers to standard growth medium based on DMEM/FF12. “UL” is referred to herein as growth medium using Ultraculture as the base medium. Serum-free media was used in the absence of antibiotics or with antibiotics for first two weeks, followed by antibiotic-free media for about 6 weeks. No antifungal agents were used. […] For base medium, standard DMEM/F12, a media supplemented with N2 Supplement, growth factors, glutamine or GLUTAMAX™ (GlutaMax™), was compared with “Advanced DMEM/FF12”, supplemented in the same way.
The effects of cell culture supplementation were also explored. To that end, the N2 supplement was also compared with the B27 xeno-free supplement. […] The effects of additional vitamin C were also tested. A vitamin C supplement was added to the culture medium every two days. […] Finally, supplementation with albumin was tested.
The osmolarity of the cell culture medium was also examined by using media of differing osmolarity (osm), in combination with different commercially available supplements.

hRPC = assay: steroid toxicity test on hRPCs (CCK-8 cytotoxicity); assay type: cell-based, human
Procedure: The cells were also subjected to a steroid toxicity test, since steroids are often used in patients at the time of transplantation.
Cell Counting Kit-8 (CCK-8; Dojindo Molecular Technologies Inc., Gaithersburg, MD) was used to determine cytotoxicity of RPCs. The kit uses WST-8, which, upon bioreduction in the presence of the electron carrier 1-methoxy PMS, produces a water-soluble colored formazan. Ninety-six well plates containing 90 μl of cell suspension per well were inoculated with 10 μl of CCK-8 pre-packaged solution. The plates were incubator for 2 hours and the OD450 of the supernatant was measured. Each experiment was performed in quadruplicate on at least three separate experiments.

Compound: O=C1O[C@H]([C@@H](O)CO)C(O)=C1O [vitamin C]
- improvement of hRPC yield (hRPCs): approximately 30%

Compound: CC1(C)O[C@@H]2C[C@H]3[C@@H]4CCC5=CC(=O)C=C[C@]5(C)[C@@]4(F)[C@@H](O)C[C@]3(C)[C@]2(C(=O)CO)O1 [triamcinolone acetonide]
- effect on cell proliferation (hRPC; clinical doses): did not appear to affect cell proliferation
- effect on donor cell viability (hRPC; high doses (about >10 times the expected clinical dose)): may decrease donor cell viability
